Laboratory results reported in US9657014B2, “Substituted 1,6-naphthyridines” (Hoffmann-La Roche Inc., priority 2012, dated 2017).

System: human embryonic stem cell derived neural stem cells (NSCs)
Experiment: Neural stem cell proliferation assay (neurogenesis assay)
Type: cell-based
Conditions: Homo sapiens, Neural stem cell, 96 h; Table 1, novel compounds; concentration at which 150% activity of control (100%) is reached; ATP levels (CellTiterGlo) after 4 days incubation
Method: Neural Stem Cell Proliferation Assay
Neurogenic properties of small molecules are determined based on the proliferation of human embryonic stem cell derived neural stem cells (NSCs) which were derived via a dual smad inhibition as previously described (Chambers, S. M., et al., Highly efficient neural conversion of human ES and iPS cells by dual inhibition of SMAD signaling, Nature biotechnology, 2009. 27 (3): p. 275-80.)
Compounds respond is measured by the increase in cells based on ATP levels (Promega:CellTiterGlo®) after an incubation period of 4 days.
NSCs are thawed and expanded over 3 passages. On the 14th day, NSCs are seeded in Polyornithin/Laminin coated 384 well plates at a cell density of 21,000 cells/cm^2 in a media volume of 38 μl.
4 hours after cell seeding, compound solutions are added at a volume of 2 μl. Stock solutions of the compounds (water, 5% DMSO) are diluted to obtain a dose response (11 points, dilution factor is 2), ranging from 8 μM to 8 nM. Controls are run to consistently determine the neurogenic properties of the cells:
Negative (neutral) control is cell culture Media (final DMSO concentration: 0.25%).
Positive controls are: • 1. cell culture Media+100 ng/ml FGF2 (final DMSO concentration: 0.1%) • 2. cell culture Media+20 ng/ml EGF (final DMSO concentration: 0.1%) • 3. cell culture Media+100 ng/ml Wnt3a (final DMSO concentration: 0.1%)
After 4 days incubation at 37° C., 5% CO2, the amount of ATP per well is quantified. The ATP concentration is proportional to the cell number. ATP is quantified by using the Promega CellTiterGlo® kit. The CellTiterGlo® reagents contain a cell lysis buffer, a thermo stable luciferase (UltraGlo™ recombinant luciferase), magnesium and luciferin. Luciferin reacts with ATP producing oxyluciferin, AMP and light. The luminescence signal is proportional to the ATP content.
The value of negative (neutral) control is determined for each assay plate by taking the average of 16 negative control wells. The neurogenic compound response is calculated for each compound as (compound/Negative Control)*100.
The values of EC150 from the dose response curve are determined for each test compound. The EC150 is the compound concentration at which 150% activity of control (100%) is reached.

Compared with `Cc1cc(-c2cncc3ccc(C(N)=O)nc23)ccn1` [Example 90, 8-(2-Methylpyridin-4-yl)-1,6-naphthyridine-2-carboxamide], `Cc1ccc(-c2cncc3ccc(C(N)=O)nc23)cc1` [Example 80, 8-Tolyl-1,6-naphthyridine-2-carboxamide] is 5.7-fold lower in EC (150% of control): 0.17 µM for the first, 0.03 µM for the second.

Compared with `O=C(NC1CCOC1)c1ccc2cncc(-c3ccc(Cl)cc3)c2n1` (stereo not shown) [Example 60, 8-(4-Chlorophenyl)-N-(tetrahydrofuran-3-yl)-1,6-naphthyridine-2-carboxamide], `O=C(NC1CC1)c1ccc2cncc(-c3ccc(Cl)cc3)c2n1` [Example 65, 8-(4-Chlorophenyl)-N-cyclopropyl-1,6-naphthyridine-2-carboxamide] is 1.9-fold lower in EC (150% of control): 0.15 µM for the first, 0.08 µM for the second.

Going from `CC(C)(C)CNC(=O)c1ccc2cncc(-c3ccc(F)cc3)c2n1` [Example 117, 8-(4-Fluorophenyl)-N-neopentyl-1,6-naphthyridine-2-carboxamide] to `CC(C)(C)CNC(=O)c1ccc2cncc(-c3ccc(F)c(F)c3)c2n1` [Example 121, 8-(3,4-Difluorophenyl)-N-neopentyl-1,6-naphthyridine-2-carboxamide], the EC (150% of control) rises from 0.07 µM to 0.26 µM (3.7-fold).

First: CC(NC(=O)c1ccc2cncc(-c3ccc(Cl)cc3Cl)c2n1)C(C)(C)O (stereo not shown) [Example 172, 8-(2,4-Dichlorophenyl)-N-(3-hydroxy-3-methylbutan-2-yl)-1,6-naphthyridine-2-carboxamide]
Second: CC(NC(=O)c1ccc2cncc(-c3cccc(Cl)n3)c2n1)C(C)(C)O (stereo not shown) [Example 175, 8-(6-Chloropyridin-2-yl)-N-(3-hydroxy-3-methylbutan-2-yl)-1,6-naphthyridine-2-carboxamide]
The EC (150% of control) of the first is 2.1-fold lower: 0.5 µM for the first, 1.03 µM for the second.

Going from `CC(C)NC(=O)c1ccc2cncc(-c3ccc(Cl)cc3)c2n1` [Example 70, 8-(4-Chlorophenyl)-N-isopropyl-1,6-naphthyridine-2-carboxamide] to `NC(=O)c1ccc2cncc(-c3ccc(Cl)cc3)c2n1` [Example 44, 8-(4-Chlorophenyl)-1,6-naphthyridine-2-carboxamide], the EC (150% of control) falls from 0.6 µM to 0.03 µM (20-fold).

Compared with `NC(=O)c1ccc2cncc(-c3ccc(F)cc3)c2n1` [Example 77, 8-(4-Fluorophenyl)-1,6-naphthyridine-2-carboxamide], `CS(=O)(=O)c1ccc(-c2cncc3ccc(C(N)=O)nc23)cc1` [Example 86, 8-(4-(Methylsulfonyl)phenyl)-1,6-naphthyridine-2-carboxamide] is 3-fold lower in EC (150% of control): 0.09 µM for the first, 0.03 µM for the second.

Compared with `NC(=O)c1ccc2cncc(-c3ccc4c(c3)OCCO4)c2n1` [Example 92, 8-(2,3-Dihydrobenzo[b][1,4]dioxin-6-yl)-1,6-naphthyridine-2-carboxamide], `CS(=O)(=O)c1cccc(-c2cncc3ccc(C(N)=O)nc23)c1` [Example 87, 8-(3-(Methylsulfonyl)phenyl)-1,6-naphthyridine-2-carboxamide] is 26-fold higher in EC (150% of control): 0.03 µM for the first, 0.79 µM for the second.

Compared with `COCCNC(=O)c1ccc2cncc(-c3ccc(Cl)cc3)c2n1` [Example 6, 8-(4-Chlorophenyl)-N-(2-methoxyethyl)-1,6-naphthyridine-2-carboxamide], `CN(C(=O)c1ccc2cncc(-c3ccc(Cl)cc3)c2n1)C1CC1` [Example 97, 8-(4-Chlorophenyl)-N-cyclopropyl-N-methyl-1,6-naphthyridine-2-carboxamide] is 13-fold higher in EC (150% of control): 0.02 µM for the first, 0.26 µM for the second.

Compared with `CS(=O)(=O)CCNC(=O)c1ccc2cncc(-c3ccc(Cl)cc3F)c2n1` [Example 139, 8-(4-Chloro-2-fluorophenyl)-N-(2-(methylsulfonyl)ethyl)-1,6-naphthyridine-2-carboxamide], `CS(=O)(=O)CCNC(=O)c1ccc2cncc(-c3ccccc3F)c2n1` [Example 133, 8-(2-Fluorophenyl)-N-(2-(methylsulfonyl)ethyl)-1,6-naphthyridine-2-carboxamide] is 3.8-fold higher in EC (150% of control): 0.06 µM for the first, 0.23 µM for the second.

First: O=C(c1ccc2cncc(-c3ccc(Cl)cc3)c2n1)N1CCOCC1 [Example 57, (8-(4-Chlorophenyl)-1,6-naphthyridin-2-yl)(morpholino)methanone]
Second: O=C(c1ccc2cncc(-c3ccc(Cl)cc3)c2n1)N1CCC(O)C1 (stereo not shown) [Example 75, (8-(4-Chlorophenyl)-1,6-naphthyridin-2-yl)(3-hydroxypyrrolidin-1-yl)methanone]
The EC (150% of control) of the first is 2.4-fold lower: 0.17 µM for the first, 0.4 µM for the second.

Compared with `Cc1cc2cncc(-c3ccc(Cl)cc3)c2nc1C(N)=O` [Example 152, 8-(4-Chlorophenyl)-3-methyl-1,6-naphthyridine-2-carboxamide], `Cc1cc2cncc(-c3ccc(OC(F)(F)F)cc3)c2nc1C(N)=O` [Example 154, 3-Methyl-8-(4-(trifluoromethoxy)phenyl)-1,6-naphthyridine-2-carboxamide] is 6.4-fold higher in EC (150% of control): 0.34 µM for the first, 2.19 µM for the second.

Going from `CS(=O)(=O)c1ccc(CNC(=O)c2ccc3cncc(-c4cc(F)ccc4F)c3n2)cc1` [Example 116, 8-(2,5-Difluorophenyl)-N-(4-(methylsulfonyl)benzyl)-1,6-naphthyridine-2-carboxamide] to `CC(NC(=O)c1ccc2cncc(-c3ccc(Cl)cc3)c2n1)c1cccc(S(C)(=O)=O)c1` (single isomer, unassigned; (-)) [Example 52, (−)-8-(4-Chloro-phenyl)-[1,6]naphthyridine-2-carboxylic acid [(S or R)-1-(3-methanesulfonyl-phenyl)-ethyl]-amide], the EC (150% of control) falls from 1.65 µM to 0.8 µM (2.1-fold).

Going from `CCCCCCNC(=O)Cc1cccc(-c2cncc3ccc(C(N)=O)nc23)c1` [Example 148, 8-(3-(2-(Hexylamino)-2-oxoethyl)phenyl)-1,6-naphthyridine-2-carboxamide] to `NC(=O)c1ccc2cncc(-c3ccc(-n4cccn4)cc3)c2n1` [Example 103, 8-(4-(1H-Pyrazol-1-yl)phenyl)-1,6-naphthyridine-2-carboxamide], the EC (150% of control) falls from 0.18 µM to 0.01 µM (18-fold).

Compared with `Cn1cc(-c2cncc3ccc(C(N)=O)nc23)cn1` [Example 98, 8-(1-Methyl-1H-pyrazol-4-yl)-1,6-naphthyridine-2-carboxamide], `CC(NC(=O)c1ccc2cncc(-c3cc(F)c(F)c(F)c3)c2n1)C(C)(C)O` (stereo not shown) [Example 173, N-(3-Hydroxy-3-methylbutan-2-yl)-8-(3,4,5-trifluorophenyl)-1,6-naphthyridine-2-carboxamide] is 6.4-fold higher in EC (150% of control): 0.14 µM for the first, 0.9 µM for the second.

For `O=C(NCc1ccncc1)c1ccc2cncc(-c3ccncc3)c2n1` [Example 32, 8-(Pyridin-4-yl)-N-(pyridin-4-ylmethyl)-1,6-naphthyridine-2-carboxamide], the EC (150% of control) was 0.29 µM.

Same assay, conditions: Homo sapiens, Neural stem cell, 96 h; Table 2, known compounds; concentration at which 150% activity of control (100%) is reached; ATP levels (CellTiterGlo) after 4 days incubation

First: O=C(NCc1ccncc1)c1ccc2cncc(-c3ccsc3)c2n1 [Example 198, 8-Thiophen-3-yl-[1,6]naphthyridine-2-carboxylic acid (pyridin-4-ylmethyl)-amide]
Second: O=C(NCc1ccc(Cl)cc1)c1ccc2cncc(-c3ccsc3)c2n1 [Example 201, 8-Thiophen-3-yl-[1,6]naphthyridine-2-carboxylic acid 4-chloro-benzylamide]
The EC (150% of control) of the first is 6.7-fold lower: 0.12 µM for the first, 0.8 µM for the second.

Compared with `O=C(NCc1ccc(C(F)(F)F)nc1)c1ccc2cncc(-c3ccsc3)c2n1` [Example 203, 8-Thiophen-3-yl-[1,6]naphthyridine-2-carboxylic acid (6-trifluoromethyl-pyridin-3-ylmethyl)-amide], `O=C(NCc1ccc(C(F)(F)F)nc1)c1ccc2cncc(-c3ccccc3)c2n1` [Example 196, 8-Phenyl-[1,6]naphthyridine-2-carboxylic acid (6-trifluoromethyl-pyridin-3-ylmethyl)-amide] is 2.5-fold higher in EC (150% of control): 1.5 µM for the first, 3.7 µM for the second.

First: O=C(NC1CCN(Cc2ccccc2)CC1)c1ccc2cncc(-c3ccccc3)c2n1 [Example 193, 8-Phenyl-[1,6]naphthyridine-2-carboxylic acid (1-benzyl-piperidin-4-yl)-amide]
Second: CS(=O)(=O)c1ccc(CNC(=O)c2ccc3cncc(-c4ccccc4)c3n2)cc1 [Example 195, 8-Phenyl-[1,6]naphthyridine-2-carboxylic acid 4-methanesulfonyl-benzylamide]
The EC (150% of control) of the first is 2.1-fold lower: 1.9 µM for the first, 4 µM for the second.

`O=C(NCCCn1ccnc1)c1ccc2cncc(-c3ccccc3)c2n1` [Example 189, 8-Phenyl-[1,6]naphthyridine-2-carboxylic acid (3-imidazol-1-yl-propyl)-amide] and `O=C(c1ccc2cncc(-c3ccsc3)c2n1)N1CCN(c2ccccn2)CC1` [Example 200, (4-Pyridin-2-yl-piperazin-1-yl)-(8-thiophen-3-yl-[1,6]naphthyridin-2-yl)-methanone] are within 1.5-fold of each other in EC (150% of control): 1.2 µM for the first, 0.8 µM for the second.
